For one series, the system named is NASH with liver fibrosis. The settings on record: cited from earlier work.
A short description of series [1]: Drug-drug interaction study between TRX and CVC in healthy and healthy but overweight to obese subjects (plasma pharmacokinetics, tolerability). The format is in vivo, human. The conditions noted are these: for AUC(0-t) / Cmax: human, plasma, oral, TRX 60 μg. The source says:
This is a single site, randomized, parallel group, 3 arm double-blind, double-dummy study to evaluate the potential drug-drug interaction between TRX and CVC in healthy and healthy but overweight to obese subjects. Healthy and healthy but overweight to obese subjects with body mass index (BMI) up to 32, are included to give a better representation of the NASH patients that will be studied in future clinical studies. The subjects were randomized into 3 arms a) TRX monotherapy, b) CVC monotherapy, and c) TRX and CVC as a combination.
A total of 42 subjects were randomized into the 3 parallel arms receiving single daily doses of TRX, CVC, and TRX+CVC combination.
This study examined doses of 60 μg of tropifexor and 150 mg of CVC given with a standard breakfast.
Pharmacokinetics: Sample collections included time points up to 24 hours after the first (Day 1) and the last (Day 14) doses to establish the AUC0-24 h,Cmax AUC0-24 h,ss and Cmax,ss for TRX, CVC, and TRX+CVC plasma concentration-time profiles.

Series [2] is described as follows: 1-month combination toxicity study with CVC and TRX. The format is in vivo. The conditions noted are these: CVC 30 mg/kg/day alone. How it is done: A 1-month combination toxicity study was performed with cenicriviroc (CVC) (30 mg/kg/day) and tropifexor (TRX) (0.03 mg/kg or 1 mg/kg/day).
Series [3] is described as follows: Phase I studies of CVC, tolerability. The series is classed as in vivo, human. The settings on record: single doses up to 900 mg; multiple daily doses up to 400 mg for 10 days.
Series [4] relates to nonalcoholic steatohepatitis. The settings on record: cited from earlier work.
Series [5] in a line: Safety in single dose studies of TRX. The series is classed as in vivo, human. The settings on record: single dose studies up to 3000 μg. The protocol:
(§1) A total of 69 subjects have received TRX at doses ranging from 10 μg to 3000 μg in single or 10 μg to 100 μg in multiple daily doses.

Another series relates to FXR. The series is described as follows: FGF19 biomarker in single and multiple dose studies of TRX. The series is classed as in vivo, human. The conditions noted are these: single doses 10-3000 μg or multiple daily doses 10-100 μg; 69 subjects. The protocol:
as §1

Where [6] appears, read: NASH adults with liver fibrosis, one year.
[7] abbreviates: Day 1, dosed alone, CVC 150 mg, with standard breakfast, read-out: area under the concentration-time curve (AUC0-24 h).
Setting [8] is: Day 1, dosed alone, CVC 150 mg, with standard breakfast, read-out: observed peak drug concentration (Cmax).
[9] abbreviates: Day 14, dosed alone, CVC 150 mg daily, read-out: steady-state AUC0-24 h,ss.
The mark [10] stands for this setting: Day 14, dosed alone, CVC 150 mg daily, read-out: steady-state Cmax,ss.
[11] abbreviates: Day 14, TRX 60 μg + CVC 150 mg daily.

“Also recorded” adds a separate entry of the source. Read-outs that look alike come from different tables or passages of the source.

For `CCCCOCCOc1ccc(-c2ccc3c(c2)/C=C(/C(=O)Nc2ccc([S@@+]([O-])Cc4cncn4CCC)cc2)CCCN3CC(C)C)cc1` [CVC, (S,E)-8-(4-(2-butoxyethoxy)phenyl)-1-(2-methylpropyl)-N-(4-(((1-propyl-1H-imidazol-5-yl)methyl)sulfinyl)phenyl)-1,2,3,4-tetrahydrobenzo[b]azocine-5-carboxamide], the fibrosis entry in the series with NASH with liver fibrosis (setting [6]) was “reduction of fibrosis”. In addition, the “improvement of NAS” value with NASH with liver fibrosis (setting [6]) is “no significant impact”. Also, the adverse effects result in the series with NASH with liver fibrosis (patients) is reported as “can induce fatigue or diarrhea in a small part of the patients”. Further, the “accumulation in plasma over the study duration” value in series [1] (150 mg daily, Day 1 to Day 14) was “accumulated in plasma”. Also, the “impact of co-administration with TRX on Cmax and AUC0-24 h of CVC” value in series [1] (CVC 150 mg + TRX 60 μg) is “no marked impact”. For the same molecule, the results for the AUC(0-t) in series [1] (setting [7]) and in series [1] (setting [9]) were 4640 ng·h/mL and 10800 ng·h/mL, respectively. Further, the Cmax in series [1] (setting [8]) amounted to 450 ng/mL; in series [1] (setting [10]), 778 ng/mL. Moreover, in series [2], the “microscopic findings indicative of toxicity” value is “no microscopic findings indicative of toxicity”. Moreover, the tolerability entry in series [3] is on record as “generally well-tolerated”.
`CC[C@H]1[C@@H](O)[C@@H]2[C@H](CC[C@]3(C)[C@@H]([C@H](C)CCC(=O)O)CC[C@@H]23)[C@@]2(C)CC[C@@H](O)C[C@@H]12` [OCA, obeticholic acid]: the “adverse effects on long term administration” value in series [4] was “pruritus; also recorded: increased LDL cholesterol”.
For the molecule `O=C(O)c1cc(F)c2nc(N3[C@@H]4CC[C@H]3C[C@@H](OCc3c(-c5ccccc5OC(F)(F)F)noc3C3CC3)C4)sc2c1` [TRX, 2-[(1R,3r,5S)-3-({5-cyclopropyl-3-[2-(trifluoromethoxy)phenyl]-1,2-oxazol-4-yl}methoxy)-8-azabicyclo [3.2.1]octan-8-yl]-4-fluoro-1,3-benzothiazole-6-carboxylic acid], the “decrease of AUC0-24 h of TRX on co-administration of CVC” value in series [1] (Day 1, TRX 60 μg + CVC 150 mg) is on record as 32%. The “decrease of Cmax of TRX on co-administration of CVC” value in series [1] (Day 1, TRX 60 μg + CVC 150 mg) was found to be 33%. The “reduction of AUC0-24 h,ss of TRX when co-administered with CVC” value in series [1] (setting [11]) worked out at 35%. For the same molecule, the “reduction of Cmax,ss of TRX when co-administered with CVC” value in series [1] (setting [11]) is recorded as 35%. For the same molecule, the AUC(0-t) was 17.9 ng·h/mL in series [1] (setting [7]) and 25.2 ng·h/mL in series [1] (setting [9]). The Cmax in series [1] (setting [8]) was 1.46 ng/mL; in series [1] (setting [10]), 1.77 ng/mL. For the same molecule, the “reduction of TRX exposure by co-administration of CVC” value in series [1] (summary statement, TRX 60 μg + CVC 150 mg) was 32-33%. Also, in series [5], the safety concerns result was “No safety concerns”. Besides, the “FGF19, biomarker of FXR target engagement in the enterocyte” value with FXR is “Dose-dependent increases”.
